Read-outs that look alike come from different tables or passages of the source. Where a SMILES comes first, the peptide text is derived from it. The star is where a group is joined. Cbz = O=C(OCc1ccccc1)*
Legend:
MARK2 [1] = conditions: previous report; cited from earlier work
MARK2 [2] = target: T1, MARK2 (Mus musculus, UniProt Q05512); assay: cell-based MARK2 kinase activity assay based on eIF2α phosphorylation (immunoblot of MEFs); conditions: for activity in inhibiting the phosphorylation of eIF2α: comparison of seven drugs, FIG. 21E; for phosphorylation level of eIF2α-51S: FIG. 21B
T1 construct: endogenous in cells; host or cells: mouse embryonic fibroblasts (MEFs)
Method: Cells were washed twice with 1× PBS and then lysed and harvested on ice in RIPA solution (50 mM Tris-HCl (pH 7.6); 150 mM NaCl; 1% NP-40; 1% SDS; 100 mM sodium fluoride; 17.5 mM β-glycerophosphate; 0.5% sodium deoxycholate; 10% glycerol). The RIPA buffer was supplemented with EDTA-free protease inhibitor cocktail (Roche, USA), phosphatase inhibitor cocktail 2 and phosphatase inhibitor cocktail 3 (Sigma-Aldrich, USA), 1 μM phenylmethanesulfonyl fluoride, and 2 μM sodium orthovanadate. Lysates were kept cold on ice, pulse-sonicated for 10 min, and then centrifuged at 12,000 g at 4° C. for 10 min. The protein content of each sample was determined by a bicinchoninic acid (BCA) assay (Thermo Fisher). Equal amounts of total protein extract were resolved by SDS-PAGE and transferred to nitrocellulose membranes (Millipore HATF08550, USA). The blots were blocked with 5% w/v BSA and 0.05% NaN3 in TBST and incubated with primary antibodies at 4° C. overnight, then finally incubated with appropriate secondary antibodies. The antibodies used include those against eIF2α (Cell Signaling 5324, USA), peIF2α (Cell Signaling 9721), PERK (Cell Signaling 3192), pPERK-^980T (Cell Signaling 3179), PKR (Santa Cruz SC-708 and SC-6282), HRI (Millipore 07-728), GCN2 (Cell Signaling 3302), pGCN2-899T (Abcam ab75836, USA), ATF4 (Cell Signaling 11815), HSP90 (Cell Signaling 8165), HSP70 (Cell Signaling 4872), Flag (Sigma F1804), Actin (Santa Cruz SC-47778), Tubulin (Proteintech 10068-1-AP, USA), PKCδ (Santa Cruz SC-937; Cell Signaling 2058), pPKCδ-311Y (Cell Signaling 2055), pPKCδ-^505T (Cell Signaling 9374), MARK2 (Abcam ab135816; Santa Cruz SC-365405), pMARK2-^595T (Abcam ab34751), PP1a (Cell Signaling 2582), pPP1α-^320T (Cell Signaling 2581), and puromycin (Millipore MABE343). Images were captured with an Odyssey imager and analyzed with Image Studio software (Licor 9120, USA).

[3] = test system: PKCδ-MARK2-eIF2α signaling pathway; format: cell-based, mouse
Method: Since the phosphorylation of MARK2 at threonine 595 is required for its positive regulation of eIF2α phosphorylation (FIG. 1E), we asked whether this form of phosphorylated MARK2 is regulated upon cytosolic protein misfolding stress.
The condition of MG132 treatment at 20 μM for 4 h was chosen for optimal induction of eIF2α phosphorylation in the analysis of these MEFs (FIG. 9D). To test whether activation of MARK2 also can be induced by other types of stress, we subjected the cells to oxidative stress, such as sodium arsenite treatment, or ER stress, such as tunicamycin treatment.
Cells were washed twice with 1× PBS and then lysed and harvested on ice in RIPA solution (50 mM Tris-HCl (pH 7.6); 150 mM NaCl; 1% NP-40; 1% SDS; 100 mM sodium fluoride; 17.5 mM β-glycerophosphate; 0.5% sodium deoxycholate; 10% glycerol). The RIPA buffer was supplemented with EDTA-free protease inhibitor cocktail (Roche, USA), phosphatase inhibitor cocktail 2 and phosphatase inhibitor cocktail 3 (Sigma-Aldrich, USA), 1 μM phenylmethanesulfonyl fluoride, and 2 μM sodium orthovanadate. Lysates were kept cold on ice, pulse-sonicated for 10 min, and then centrifuged at 12,000 g at 4° C. for 10 min. The protein content of each sample was determined by a bicinchoninic acid (BCA) assay (Thermo Fisher). Equal amounts of total protein extract were resolved by SDS-PAGE and transferred to nitrocellulose membranes (Millipore HATF08550, USA). The blots were blocked with 5% w/v BSA and 0.05% NaN3 in TBST and incubated with primary antibodies at 4° C. overnight, then finally incubated with appropriate secondary antibodies.

[4] = test system: interaction between PKCδ and HSP90; assay: coimmunoprecipitation of HSP90 by anti-PKCδ antibody in MEFs; format: cell-based, mouse; conditions: MEF cells treated with MG132
Excerpt: We next investigated how the PKC&-MARK2-eIF2α signaling pathway senses protein misfolding stress. Since misfolded proteins, including SOD1, are prone to interact with molecular chaperone proteins, Wang et al., 2009; Tummala et al., 2005, we reasoned that the upstream regulator PKCδ could potentially interact with a molecular chaperone and that disruption of this interaction by misfolded proteins during proteotoxic stress might be a mechanism to account for the activation of the PKCδ kinase. We searched a protein-protein interaction database, Szklarczyk et al., 2015, and identified several candidate interactors of PKCδ, including HSP90, HSP90a, and HSP70. To evaluate potential interactions between PKCδ and these molecular chaperones, we performed coimmunoprecipitation experiments with endogenous proteins in MEF cells. After immunoprecipitation of PKCδ, only HSP90 was pulled down by PKCδ (FIG. 3A). When the level of PKCδ protein was elevated via stable expression in MEF cells, more HSP90 protein could be coimmunoprecipitated by PKCδ. Conversely, depletion of PKCδ from MEFs or use of an IgG control instead of the anti-PKCδ antibody abolished the coimmunoprecipitation of HSP90, confirming the specific interaction between PKCδ and HSP90 (FIG. 3A). […]

[5] = WT and 4-KO MEFs, sodium arsenite 200 μM, 1 h

T1 sequence (Q05512 whole entry): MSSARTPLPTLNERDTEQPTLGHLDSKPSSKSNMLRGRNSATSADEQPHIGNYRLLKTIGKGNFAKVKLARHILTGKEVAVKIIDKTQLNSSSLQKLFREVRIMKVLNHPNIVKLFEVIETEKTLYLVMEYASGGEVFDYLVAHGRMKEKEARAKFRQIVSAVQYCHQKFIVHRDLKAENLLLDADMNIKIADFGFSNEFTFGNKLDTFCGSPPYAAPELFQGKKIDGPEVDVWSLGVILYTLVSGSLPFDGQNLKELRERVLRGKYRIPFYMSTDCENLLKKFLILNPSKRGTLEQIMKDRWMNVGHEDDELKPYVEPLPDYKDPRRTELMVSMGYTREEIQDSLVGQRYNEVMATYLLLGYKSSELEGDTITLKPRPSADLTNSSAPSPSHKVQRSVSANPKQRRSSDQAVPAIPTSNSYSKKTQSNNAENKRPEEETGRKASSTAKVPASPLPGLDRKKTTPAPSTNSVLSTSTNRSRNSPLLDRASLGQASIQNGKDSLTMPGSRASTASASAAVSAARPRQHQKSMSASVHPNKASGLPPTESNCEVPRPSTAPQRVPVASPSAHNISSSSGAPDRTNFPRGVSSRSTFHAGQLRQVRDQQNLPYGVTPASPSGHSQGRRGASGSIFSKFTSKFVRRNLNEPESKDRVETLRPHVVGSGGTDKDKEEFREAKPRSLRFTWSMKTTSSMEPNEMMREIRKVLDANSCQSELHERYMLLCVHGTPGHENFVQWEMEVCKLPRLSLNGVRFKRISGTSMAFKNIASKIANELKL

For `Cn1cc(C2=C(c3ccc(Cl)cc3Cl)C(=O)NC2=O)c2ccccc21` [SB216763], the MARK kinase function (MARK2 [1]) is given as “inhibited MARK kinase function”, the “phosphorylation of eIF2α-51S” value (MARK2 [2]; MEFs, 20 μM, 1 hr, versus DMSO control, FIG. 21A) is given as “substantially reduces the phosphorylation of eIF2α-^51S” and the “increase in the levels of phosphorylated eIF2α-51S in response to MG132” value (MARK2 [2]; cell co-treatment with MG132) is given as “substantially diminished the increase”. For the same compound, the “activity in inhibiting the phosphorylation of eIF2α” value (MARK2 [2]) was “high activity for inhibiting eIF2α phosphorylation” and the “activity in inhibiting the phosphorylation of eIF2α” value (MARK2 [2]; listed as SB-216763) was “high activity”.
For `Cc1c[nH]c(-c2cnc(NCCNc3ccc(C#N)cn3)nc2-c2ccc(Cl)cc2Cl)n1` [CHIR99021], the “phosphorylation level of eIF2α-51S” value (MARK2 [2]; MEFs, 20 μM, 1 hr, versus DMSO control) was “decreased the phosphorylation level of eIF2α-^51S”, the “levels of phosphorylated eIF2α-51S” value (MARK2 [2]; at low concentrations) was “substantially lowering the levels of phosphorylated eIF2α-^51S” and the “activity in inhibiting the phosphorylation of eIF2α” value (MARK2 [2]) was “high activity”.
With `COc1cc2ncnc(Nc3ccc(F)c(Cl)c3)c2cc1OCCCN1CCOCC1` [Gefitinib] the “phosphorylation level of eIF2α-51S” value (MARK2 [2]; MEFs, 40 μM, 1 hr, versus DMSO control) was “needs a higher concentration than CHIR99021 to achieve the similar effect” and the “activity in inhibiting the phosphorylation of eIF2α” value (MARK2 [2]) was “low activity”.
In the case of `CC(C)C[C@@H](C=O)NC(=O)[C@H](CC(C)C)NC(=O)[C@H](CC(C)C)NC(=O)OCc1ccccc1` [MG132] (Cbz-Leu-Leu-Leu-aldehyde), the “level of the ATF4 protein” value ([3]; MEF cells treated with MG132) is reported as “increased the level of the ATF4 protein”, the “levels of phosphorylated MARK2-595T” value ([3]; MEF cells treated with MG132) is reported as “substantial increase” and the “levels of phosphorylated eIF2α-51S” value ([3]; MEF cells treated with MG132) is reported as “corresponding increase”. For the same compound, the “time at which phosphorylation of eIF2α-51S peaked” value ([3]; MEFs, MG132 20 μM time course) was “around 4 h” and the “interaction between PKCδ and HSP90” value [4] was “completely abolished the interaction between PKCδ and HSP90”.
In the case of `O=[As]O` [sodium arsenite], the “phosphorylation of MARK2-595T” value [3, 5] is reported as “able to induce the phosphorylation” and the “phosphorylation of eIF2α-51S” value [3, 5] is reported as “able to induce the phosphorylation”.
With tunicamycin the “phosphorylation of MARK2-595T” value ([3]; MEFs, tunicamycin 24 μg/ml, 2 h) was “no effect on the phosphorylation of MARK2-^595T” and the “phosphorylation of eIF2α-51S” value ([3]; WT and 4-KO MEFs, tunicamycin 24 μg/ml, 2 h) was “induced the phosphorylation of eIF2α-^51S in WT MEFs but not in the cells lacking the 4 previously known kinases”.

Source: patent publication US20250186373A1, “TARGETING AN EUKARYOTIC INITIATION FACTOR 2 ALPHA KINASE TO REGULATE TRANSLATION UNDER STRESS” (The Johns Hopkins University, priority 2022, published 2025)
